In patent US20250185656A1, “PIPERIDINONE DERIVATIVE OR SALT THEREOF, HARMFUL ORGANISM CONTROL AGENT CONTAINING SAID COMPOUND, AND METHOD FOR USING SAME” (ADEKA Corporation, priority 2022, published 2025) one finds inhibition and mortality data, which are given here for 4 compounds.

Where only a bound is given, the exact number is not on record here.

For experiment [1], the system named is L-1 stage larvae of Dirofilaria immitis. Kind of experiment: Evaluation test of influence on the movement of Dirofilaria immitis larvae. The conditions noted are these: 72 h, read-out: corrected movement inhibition rate.
The subject of a further experiment is Plutella xylostella. The experiment in a line: Insecticidal test against Plutella xylostella. To be noted: in Brassica rapa, 144 h, read-out: corrected mortality, rating of assessment.
Experiment [2] concerns Frankliniella occidentalis. Kind of experiment: Insecticidal test against Frankliniella occidentalis. The conditions noted are these: in Phaseolus vulgaris, 96 h, read-out: corrected mortality, rating of assessment.
Text: Insecticidal Test Against Frankliniella occidentalis
Female adults of Frankliniella occidentalis were inoculated onto Phaseolus vulgaris leaf pieces, and after allowing them to lay eggs for one day, the female adults were removed. […] Four days after the treatment, the number of surviving larvae of this species was examined. […] In duplicate.

Text for Plutella xylostella: Insecticidal Test Against Plutella xylostella
Six days after the immersion in the drug solution, the number of surviving insects was examined. […] In triplicate using 10 per plot.

For the compound `CC(C)(C)OC(=O)N1CC(=O)C(C(=O)Nc2ccc(F)cc2)=C(O)C1` [Compound 1-36, tertiary-butyl 4-((4-fluorophenyl)carbamoyl)-5-hydroxy-3-oxo-3,6-dihydropyridine-1 (2H)-carboxylate], the inhibition at 50 ppm in experiment [1] was not below 50%. In addition, the mortality at 500 ppm (with Plutella xylostella; in experiment [2]) was 100% each time.
On to `O=C1CN(c2ncc(Br)cn2)CC(O)=C1C(=O)Nc1ccc(F)cc1` [Compound 1-65, 1-(5-bromopyrimidin-2-yl)-N-(4-fluorophenyl)-5-hydroxy-3-oxo-1,2,3,6-tetrahydropyridine-4-carboxamide], for which the mortality at 500 ppm (in the experiment on Plutella xylostella; in experiment [2]) was 100% each time.
Regarding `CC(C)(C)OC(=O)N1CC(=O)C(C(=S)Nc2ccc(Cl)cc2)=C(O)C1` [Compound 2-13, tertiary-butyl 4-((4-chlorophenyl)carbamothioyl)-5-hydroxy-3-oxo-3,6-dihydropyridine-1 (2H)-carboxylate], the mortality at 500 ppm with Plutella xylostella is 100%.
`N#Cc1ccc(N2CC(O)=C(C(=O)Nc3ccc(F)cc3)C(=O)O2)cc1` [Compound 3-1, 2-(4-cyanophenyl)-N-(4-fluorophenyl)-4-hydroxy-6-oxo-3,6-dihydro-2H-1,2-oxazin-5-carboxamide]: the mortality at 500 ppm in the experiment on Plutella xylostella worked out at 100%.

Broadly, the inhibition is the relative decrease from the control value, in per cent. For orientation: mortality means the share of the test organisms that died.
